The values that follow come from ChEMBL document CHEMBL1201862, “PubChem BioAssay data set” (2004).

The term CC50 denotes the concentration at which the toxic effect on the cells reaches its halfway point. In general, IC50 refers to the midpoint of a concentration-inhibition curve. One may read the AC50 as the concentration giving half of the maximal activity seen.

Assay [1] is described as follows: THP-1 cell cytotoxicity, cytotoxicity control, set 6 (AID 602433). It counts as functional. The note with it: Mycobacterium tuberculosis.
A further assay has as its target T1, Hexokinase HKDC1 (Homo sapiens, UniProt Q2TB90).
T1 sequence (Q2TB90 whole entry): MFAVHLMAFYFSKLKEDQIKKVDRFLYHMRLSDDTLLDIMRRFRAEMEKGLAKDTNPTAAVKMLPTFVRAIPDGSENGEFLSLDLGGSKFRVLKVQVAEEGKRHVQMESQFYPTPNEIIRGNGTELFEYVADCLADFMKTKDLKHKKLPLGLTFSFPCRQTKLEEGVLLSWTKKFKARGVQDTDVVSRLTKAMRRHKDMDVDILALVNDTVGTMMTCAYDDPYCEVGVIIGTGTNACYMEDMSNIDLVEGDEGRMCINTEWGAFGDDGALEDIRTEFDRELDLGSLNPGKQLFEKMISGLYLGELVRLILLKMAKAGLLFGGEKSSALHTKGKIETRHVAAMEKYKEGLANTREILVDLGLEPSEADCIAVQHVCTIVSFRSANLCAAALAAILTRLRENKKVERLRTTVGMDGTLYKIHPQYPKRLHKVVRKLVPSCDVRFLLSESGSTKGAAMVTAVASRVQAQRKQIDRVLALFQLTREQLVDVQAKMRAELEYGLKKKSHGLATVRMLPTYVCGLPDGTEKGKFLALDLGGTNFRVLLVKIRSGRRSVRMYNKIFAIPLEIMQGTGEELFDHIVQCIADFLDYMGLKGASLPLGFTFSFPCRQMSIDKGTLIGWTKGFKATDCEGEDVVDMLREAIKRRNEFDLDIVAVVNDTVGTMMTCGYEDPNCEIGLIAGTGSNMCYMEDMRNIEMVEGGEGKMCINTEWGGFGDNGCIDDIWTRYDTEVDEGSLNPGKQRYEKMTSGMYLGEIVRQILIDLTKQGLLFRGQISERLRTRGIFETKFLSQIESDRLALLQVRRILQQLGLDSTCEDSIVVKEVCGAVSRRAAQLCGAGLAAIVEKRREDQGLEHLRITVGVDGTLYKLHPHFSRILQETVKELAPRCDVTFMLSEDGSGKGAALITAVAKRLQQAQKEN
In words: activation of HKDC1 glucose phosphorylation – biochemical, W721R variant, dose response (AID 504730). It counts as functional.

For the next assay, the target named is Nonstructural protein 1 (Influenza A virus, UniProt Q194T2). It counts as functional, Influenza A virus (A/California/07/2009(H1N1)).
Chain of Nonstructural protein 1 (Q194T2 whole entry): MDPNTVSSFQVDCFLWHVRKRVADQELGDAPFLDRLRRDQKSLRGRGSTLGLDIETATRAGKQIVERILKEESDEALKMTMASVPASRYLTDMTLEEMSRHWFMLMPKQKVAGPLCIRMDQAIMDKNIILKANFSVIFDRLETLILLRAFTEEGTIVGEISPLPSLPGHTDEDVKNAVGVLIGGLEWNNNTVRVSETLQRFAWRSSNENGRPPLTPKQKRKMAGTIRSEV
Another assay deals with Hexokinase-1 (Homo sapiens, UniProt P19367). Put plainly: HK1 enzyme activation by HKDC1 hits – biochemical, selectivity assay for HKDC1 activator project, dose response (AID 504762). It counts as functional.
Chain of Hexokinase-1 (P19367 whole entry): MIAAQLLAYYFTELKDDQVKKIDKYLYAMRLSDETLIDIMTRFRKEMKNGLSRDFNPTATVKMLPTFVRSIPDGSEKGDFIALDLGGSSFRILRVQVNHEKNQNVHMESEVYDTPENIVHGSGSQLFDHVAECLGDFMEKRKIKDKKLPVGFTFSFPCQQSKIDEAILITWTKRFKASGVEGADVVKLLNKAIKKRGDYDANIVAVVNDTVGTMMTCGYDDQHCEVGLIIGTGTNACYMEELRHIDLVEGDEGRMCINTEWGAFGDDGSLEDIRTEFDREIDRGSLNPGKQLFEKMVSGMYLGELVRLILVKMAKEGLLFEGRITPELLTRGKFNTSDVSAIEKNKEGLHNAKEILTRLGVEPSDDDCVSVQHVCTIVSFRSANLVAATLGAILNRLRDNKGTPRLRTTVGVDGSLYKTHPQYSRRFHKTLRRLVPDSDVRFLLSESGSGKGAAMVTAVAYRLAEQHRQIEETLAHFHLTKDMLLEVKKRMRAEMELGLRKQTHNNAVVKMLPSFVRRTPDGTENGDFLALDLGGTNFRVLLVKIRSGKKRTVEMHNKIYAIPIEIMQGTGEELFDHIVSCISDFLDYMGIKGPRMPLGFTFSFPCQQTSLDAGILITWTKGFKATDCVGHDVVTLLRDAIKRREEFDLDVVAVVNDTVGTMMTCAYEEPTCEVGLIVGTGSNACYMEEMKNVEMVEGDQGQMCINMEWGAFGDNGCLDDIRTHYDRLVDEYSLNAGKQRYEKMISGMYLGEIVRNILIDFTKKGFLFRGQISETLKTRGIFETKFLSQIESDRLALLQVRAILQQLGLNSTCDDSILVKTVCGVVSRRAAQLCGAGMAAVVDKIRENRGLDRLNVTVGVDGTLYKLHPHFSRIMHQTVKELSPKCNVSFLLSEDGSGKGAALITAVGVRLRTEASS
Assay [2] deals with T2, Microphthalmia-associated transcription factor (Homo sapiens, UniProt O75030).
T2 sequence (O75030 whole entry): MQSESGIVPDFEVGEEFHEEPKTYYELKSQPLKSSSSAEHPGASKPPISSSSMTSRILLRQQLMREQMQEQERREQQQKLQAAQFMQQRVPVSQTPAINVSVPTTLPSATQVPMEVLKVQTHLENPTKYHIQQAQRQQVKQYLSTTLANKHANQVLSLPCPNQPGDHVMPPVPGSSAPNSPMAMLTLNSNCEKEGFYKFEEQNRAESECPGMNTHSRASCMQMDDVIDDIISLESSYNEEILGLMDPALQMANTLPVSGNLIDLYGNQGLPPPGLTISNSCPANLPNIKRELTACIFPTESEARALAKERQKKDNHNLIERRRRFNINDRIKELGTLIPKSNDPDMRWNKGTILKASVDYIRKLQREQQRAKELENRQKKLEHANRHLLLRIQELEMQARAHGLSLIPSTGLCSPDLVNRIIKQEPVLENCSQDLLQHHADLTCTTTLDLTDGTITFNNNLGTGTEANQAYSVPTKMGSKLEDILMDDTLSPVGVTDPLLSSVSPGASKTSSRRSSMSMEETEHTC
In words: reducers of TRPM1 reporter luminescence, concentration series – cell-based, SK-MEL-5, cherry-picked, set 3, MITF inhibitor project, dose response (AID 493073).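 Also: SK-MEL-5 melanoma cells with luciferase driven by the MITF target TRPM1 promoter.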 It is filed as functional.

The next assay has as its system HEK293. In words: EBV LMP1 TES2 canonical NF-kB signalling blockers – cell-based, HEK293, luciferase, cherry-pick, dose response (AID 588343). It is filed as functional. The note with it: Homo sapiens.
Assay [3] addresses Heat shock protein HSP 90-alpha (Homo sapiens, UniProt P07900). It counts as functional, organism-based.
Assay [4] deals with Latent membrane protein 1 (Human herpesvirus 4 (strain B95-8), UniProt P03230). In words: LMP1 TES1 pathway selectivity over dsRED control – imaging, HEK293T, dual-color eGFP/dsRED, cherry-picks, selectivity assay for LMP1 NF-kB inhibitor project, dose response (AID 588398). It counts as functional, cell-based.
Chain of Latent membrane protein 1 (P03230 whole entry): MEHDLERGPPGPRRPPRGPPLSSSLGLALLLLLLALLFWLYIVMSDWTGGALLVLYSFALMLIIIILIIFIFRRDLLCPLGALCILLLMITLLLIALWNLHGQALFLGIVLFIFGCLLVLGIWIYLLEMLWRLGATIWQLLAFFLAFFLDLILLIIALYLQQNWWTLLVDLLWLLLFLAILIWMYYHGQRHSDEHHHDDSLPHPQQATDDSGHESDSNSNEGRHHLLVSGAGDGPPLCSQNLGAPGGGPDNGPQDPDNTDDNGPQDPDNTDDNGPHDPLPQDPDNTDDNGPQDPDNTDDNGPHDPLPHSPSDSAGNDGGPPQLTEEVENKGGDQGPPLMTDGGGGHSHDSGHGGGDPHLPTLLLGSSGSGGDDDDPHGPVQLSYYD
For assay [5], the target named is Botulinum neurotoxin type A (Clostridium botulinum (strain Hall / ATCC 3502 / NCTC 13319 / Type A), UniProt P0DPI1). In words: High-throughput multiplex microsphere dose response for inhibitors of toxin protease, specifically Botulinum neurotoxin light chain A protease, compounds from Cherry Pick 02. It counts as functional. The note with it: read-out: EC50_MICROM.
Chain of Botulinum neurotoxin type A (P0DPI1 2-448 limits assumed): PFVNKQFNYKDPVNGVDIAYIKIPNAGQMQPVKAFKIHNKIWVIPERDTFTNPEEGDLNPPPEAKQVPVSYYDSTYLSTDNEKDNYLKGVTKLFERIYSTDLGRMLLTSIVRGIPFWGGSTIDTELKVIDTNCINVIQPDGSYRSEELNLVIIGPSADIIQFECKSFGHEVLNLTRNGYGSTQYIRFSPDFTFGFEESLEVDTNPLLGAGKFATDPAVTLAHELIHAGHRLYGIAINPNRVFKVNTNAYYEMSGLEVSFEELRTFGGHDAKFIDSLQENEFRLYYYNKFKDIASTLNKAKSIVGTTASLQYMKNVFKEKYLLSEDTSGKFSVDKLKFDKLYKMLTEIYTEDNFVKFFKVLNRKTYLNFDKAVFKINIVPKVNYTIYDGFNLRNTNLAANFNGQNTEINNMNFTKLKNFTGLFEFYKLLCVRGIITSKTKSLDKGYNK

A further assay has as its target Lethal factor (Bacillus anthracis, UniProt P15917). Put plainly: High-throughput multiplex microsphere dose response for inhibitors of toxin protease, specifically Lethal Factor protease, compounds from Cherry Pick 02. It counts as functional. The note with it: read-out: EC50_MICROM.
Assay [6] concerns the target Botulinum neurotoxin type F (Clostridium botulinum, UniProt P30996). In words: High-throughput multiplex microsphere dose response for inhibitors of toxin protease, specifically Botulinum neurotoxin light chain F protease, compounds from Cherry Pick 02. It counts as functional. The note with it: read-out: EC50_MICROM.
For assay [7], the target named is T3, CAAX prenyl protease 2 (Saccharomyces cerevisiae S288c, UniProt Q03530).
T3 sequence (Q03530 whole entry): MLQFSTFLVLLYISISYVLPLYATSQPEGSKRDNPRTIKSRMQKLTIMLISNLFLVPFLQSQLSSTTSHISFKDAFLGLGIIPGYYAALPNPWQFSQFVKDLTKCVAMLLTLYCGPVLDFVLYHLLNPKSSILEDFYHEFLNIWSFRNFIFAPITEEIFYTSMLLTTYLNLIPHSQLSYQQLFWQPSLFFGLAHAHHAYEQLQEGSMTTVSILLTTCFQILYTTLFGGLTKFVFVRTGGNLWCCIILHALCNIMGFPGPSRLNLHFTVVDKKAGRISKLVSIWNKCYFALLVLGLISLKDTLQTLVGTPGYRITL
It is filed as biochemical.

Assay [8] concerns the target CAAX prenyl protease 2 (Homo sapiens, UniProt Q9Y256). In words: inhibition of Ras-converting CAAX endoprotease – biochemical, plate reader, dry powder samples, dose response (AID 588848).
Assay [9] concerns the target T3, CAAX prenyl protease 2. Put plainly: inhibition of Rce1p peptide cleavage – biochemical, plate reader, dry powder retest, dose response (AID 588851).

Activity calls are given as the source filed them. Unless noted, the rule behind the calls is not given here. A value given as a limit tells only on which side of the number the result lay.

Chain of Lethal factor (P15917 whole entry): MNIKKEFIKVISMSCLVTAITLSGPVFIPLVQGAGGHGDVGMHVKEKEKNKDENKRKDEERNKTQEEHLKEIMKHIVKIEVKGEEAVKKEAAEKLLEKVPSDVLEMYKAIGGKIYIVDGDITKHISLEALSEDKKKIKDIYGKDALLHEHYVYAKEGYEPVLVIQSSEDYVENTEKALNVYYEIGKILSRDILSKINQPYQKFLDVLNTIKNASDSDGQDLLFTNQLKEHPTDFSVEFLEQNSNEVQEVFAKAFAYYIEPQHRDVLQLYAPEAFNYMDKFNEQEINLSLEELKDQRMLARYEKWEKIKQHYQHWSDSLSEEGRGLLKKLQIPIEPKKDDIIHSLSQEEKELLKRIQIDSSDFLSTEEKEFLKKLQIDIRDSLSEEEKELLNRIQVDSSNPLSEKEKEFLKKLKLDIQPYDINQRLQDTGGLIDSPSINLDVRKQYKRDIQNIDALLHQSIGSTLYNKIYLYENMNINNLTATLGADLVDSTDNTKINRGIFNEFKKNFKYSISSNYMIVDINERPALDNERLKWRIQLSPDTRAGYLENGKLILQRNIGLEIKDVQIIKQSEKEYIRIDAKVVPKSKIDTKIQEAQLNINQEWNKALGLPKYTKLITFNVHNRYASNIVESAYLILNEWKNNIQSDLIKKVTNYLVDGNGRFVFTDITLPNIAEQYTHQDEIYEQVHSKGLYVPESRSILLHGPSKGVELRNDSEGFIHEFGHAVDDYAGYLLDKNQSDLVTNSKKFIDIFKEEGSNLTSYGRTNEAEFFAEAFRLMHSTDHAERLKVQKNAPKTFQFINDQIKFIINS
Chain of Botulinum neurotoxin type F (P30996 1-436 limits assumed): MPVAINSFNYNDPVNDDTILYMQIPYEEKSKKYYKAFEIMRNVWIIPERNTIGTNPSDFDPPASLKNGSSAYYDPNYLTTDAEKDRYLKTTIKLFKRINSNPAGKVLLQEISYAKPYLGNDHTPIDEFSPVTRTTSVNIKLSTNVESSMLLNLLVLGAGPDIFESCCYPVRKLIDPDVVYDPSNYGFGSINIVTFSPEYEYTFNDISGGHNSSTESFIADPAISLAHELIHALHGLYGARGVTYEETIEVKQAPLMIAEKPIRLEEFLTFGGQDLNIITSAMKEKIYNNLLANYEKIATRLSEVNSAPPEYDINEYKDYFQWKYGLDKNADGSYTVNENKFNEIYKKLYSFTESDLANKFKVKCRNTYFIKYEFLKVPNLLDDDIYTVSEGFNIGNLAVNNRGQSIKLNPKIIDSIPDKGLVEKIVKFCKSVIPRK
Chain of CAAX prenyl protease 2 (Homo sapiens, UniProt Q9Y256) (Q9Y256 whole entry): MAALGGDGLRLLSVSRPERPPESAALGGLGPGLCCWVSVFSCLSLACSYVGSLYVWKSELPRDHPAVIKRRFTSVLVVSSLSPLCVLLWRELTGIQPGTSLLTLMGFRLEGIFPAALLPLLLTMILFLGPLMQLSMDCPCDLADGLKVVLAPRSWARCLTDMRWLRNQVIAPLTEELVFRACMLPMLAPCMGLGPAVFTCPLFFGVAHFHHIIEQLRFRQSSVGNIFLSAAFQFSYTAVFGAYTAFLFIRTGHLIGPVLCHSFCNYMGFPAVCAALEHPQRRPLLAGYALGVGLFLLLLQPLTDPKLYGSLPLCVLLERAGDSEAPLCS

For the molecule `O=C(CSc1nc2ccccc2c(=O)[nH]1)NC1CCOCC1`, the half-maximal cytotoxic concentration (CC50) in [1] is > 100 µM (inconclusive).

As for `CC(=NNc1nc2ccccc2o1)c1cc2ccccc2cn1`, the EC50 on Hexokinase HKDC1 is 2.24 µM (active); on Hexokinase-1, > 80 µM (inactive); in assay [5] it was 5.1 µM (active); on Lethal factor it was 20 µM (inactive); in assay [6], 9.4 µM (active). Also, the IC50 at Nonstructural protein 1 was 7.16 µM (active). Besides, the half-maximal activity concentration (AC50) is 0.175 µM (active) in assay [2], 0.0887 µM (active) with HEK293, 16.9 µM (active) in assay [3] and 1.7 µM (active) in [4].

For the molecule `CC(C)c1c(C(=O)N/N=C/c2c[nH]c3ccccc23)nnn1-c1nonc1N`, the concentration at half-maximal activity (AC50) is 0.298 µM (active) at CAAX prenyl protease 2 [7], 29.3 µM (active) at CAAX prenyl protease 2 [8] and 3.14 µM (active) at CAAX prenyl protease 2 [9].
